Measured values from patent US20180209956A1, “HTS Assay for Identifying Small Molecule Inhibitors of RAD52 and Uses of Identified Small Molecule Inhibitors for Treatment and Prevention of BRCA-Deficient Malignancies” (University of Iowa Research Foundation, priority 2015, published 2018).

Columns and labels:
RAD52-dsDNA interaction = target: T1, RAD52-dsDNA interaction (Homo sapiens, UniProt P43351); experiment: FRET-based RAD52-dsDNA binding assay; details: 1 nM dsDNA, 10 nM RAD52
T1 construct: made in house
T1 sequence (P43351 1-418): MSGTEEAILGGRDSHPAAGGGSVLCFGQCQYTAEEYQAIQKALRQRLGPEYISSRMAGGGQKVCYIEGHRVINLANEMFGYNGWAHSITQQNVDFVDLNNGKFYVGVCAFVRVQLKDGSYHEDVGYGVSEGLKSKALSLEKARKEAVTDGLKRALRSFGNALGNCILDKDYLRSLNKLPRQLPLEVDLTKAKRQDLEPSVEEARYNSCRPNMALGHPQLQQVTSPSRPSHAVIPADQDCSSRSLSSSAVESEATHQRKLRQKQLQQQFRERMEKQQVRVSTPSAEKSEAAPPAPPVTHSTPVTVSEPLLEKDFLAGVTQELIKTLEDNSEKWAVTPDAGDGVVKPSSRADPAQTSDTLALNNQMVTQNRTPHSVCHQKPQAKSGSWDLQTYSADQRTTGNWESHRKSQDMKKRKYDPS
From the text: These assays utilize two complementary single stranded 28-nucleotide-long substrates, which contain either Cy3 (T-28) or Cy5 (P-28) incorporated into the middle of the respective DNA strand. When the substrates are annealed by RAD52, the Cy3 and Cy5 dyes are separated by 3 base pairs and yield a high FRET signal (FIG. 2 Supplement 2). […] The annealing reactions were initiated by mixing two half reactions and observing the change in FRET over time in the presence of varying concentrations of small molecules. An increasing FRET value over time indicates formation of the dsDNA duplex which brings the two dyes in close proximity (FIG. 2 Supplement 2). Fitting the annealing data to a double exponential allowed us to calculate and compare the final extent of annealing at varying concentrations of each compound compared to RAD52 alone. We plotted the final extent of annealing vs the concentration of the compound and calculated an IC50 of annealing inhibition.
where FRET0 is the initial FRET value of RAD52-ssDNA complex in the absence of the compound and FRETmin is the FRET value at complete inhibition. FRET values were calculated as an average of three or more independent annealing reactions plotted against the concentration of the compound. […]

[1] = target: T2, interaction between RAD52 and RPA proteins (Homo sapiens, UniProt P43351); experiment: Ni-NTA pull-down of RAD52 and RPA; assay type: binding; details: 3 μM RAD52, 3 μM RPA, 3 μM compound
T2 construct: made in house
T2 sequence (P27694 whole entry partner, one chain of several): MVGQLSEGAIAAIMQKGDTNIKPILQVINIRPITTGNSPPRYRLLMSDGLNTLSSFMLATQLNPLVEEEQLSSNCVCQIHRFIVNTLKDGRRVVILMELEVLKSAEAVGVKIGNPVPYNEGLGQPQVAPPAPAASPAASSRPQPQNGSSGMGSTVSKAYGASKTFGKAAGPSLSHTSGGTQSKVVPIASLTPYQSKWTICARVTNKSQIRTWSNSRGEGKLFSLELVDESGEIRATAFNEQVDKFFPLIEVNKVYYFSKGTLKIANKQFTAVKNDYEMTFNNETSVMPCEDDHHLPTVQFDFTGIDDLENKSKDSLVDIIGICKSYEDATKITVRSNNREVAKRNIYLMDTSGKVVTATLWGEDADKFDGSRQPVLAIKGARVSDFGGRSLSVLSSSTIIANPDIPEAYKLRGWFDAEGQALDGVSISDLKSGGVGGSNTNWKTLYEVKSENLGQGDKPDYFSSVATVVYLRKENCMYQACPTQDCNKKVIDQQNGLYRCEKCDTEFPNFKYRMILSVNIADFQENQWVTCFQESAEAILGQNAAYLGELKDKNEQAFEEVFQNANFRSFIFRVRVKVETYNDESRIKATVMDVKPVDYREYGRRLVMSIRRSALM
T2 sequence (P15927 whole entry partner, one chain of several): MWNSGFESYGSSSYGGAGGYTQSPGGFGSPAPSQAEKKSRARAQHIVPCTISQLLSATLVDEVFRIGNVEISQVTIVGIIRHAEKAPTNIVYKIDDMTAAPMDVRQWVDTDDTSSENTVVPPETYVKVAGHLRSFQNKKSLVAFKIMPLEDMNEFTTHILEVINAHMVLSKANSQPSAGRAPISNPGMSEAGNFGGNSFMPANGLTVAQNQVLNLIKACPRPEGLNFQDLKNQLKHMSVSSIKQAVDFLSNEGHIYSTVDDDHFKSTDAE
T2 sequence (P35244 whole entry partner, one chain of several): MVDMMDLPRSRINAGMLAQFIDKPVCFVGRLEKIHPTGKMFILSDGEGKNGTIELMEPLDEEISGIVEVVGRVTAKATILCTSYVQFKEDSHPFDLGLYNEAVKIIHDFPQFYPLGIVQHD

RAD52 = target: T3, RAD52 (Homo sapiens, UniProt P43351); experiment: WaterLOGSY NMR analysis of compound binding to RAD52; design: made in house; details: 20 or 40 μM compound, 3.3 μM RAD52
T3 sequence (P43351 1-418): T1 sequence (P43351 1-418)
Method: In WaterLOGSY spectrum, if a compound binds to a protein, the compound will receive negative nuclear Overhauser effects (NOEs) due to the slow tumbling of the protein-compound complex, leading to a positive WaterLOGSY peak.
WaterLOGSY NMR analysis of the compound binding to RAD52 and RPA proteins: Compound binding to RAD52 and RPA proteins was analyzed using water-ligand observation with gradient spectroscopy (WaterLOGSY) NMR experiments (Dalvit et al., 2001, Dalvit et al., 2000). The WaterLOGSY spectra of compounds in the presence of RAD52 or RPA were acquired using a water NOE mixing time of 1 s and a T2 relaxation filter of 50 ms just before data acquisition to suppress the broad signals derived from protein. The protein buffer used in the experiments contains 10 mM Tris-d11, 75 mM KCl, 0.25 mM EDTA, pH 7.5, and 10% D20. All NMR data were acquired on a Bruker Avance II 800 MHz NMR spectrometer equipped with a sensitive cryoprobe and recorded at 25° C. The ^1H chemical shifts were referenced to 2,2-dimethyl-2-silapentane-5-sulfonate (DSS). NMR spectra were processed using NMR Pipe (Delaglio et al., 1995) and analysed using NMR View (Johnson and Blevins, 1994).

GM01604 cells [2] = experiment: LIVE/DEAD cell viability assay; assay type: cell-based, human; details: for Dead cells: MUS81-depleted cells
Method: Cell Viability Live/Dead Assays: GM01604 cells were transfected with siRNAs directed against GFP (Ctrl), or against MUS81 (Qiagen), BRCA2 (Sigma-Aldrich), and RAD52 (Qiagen) 48 hours prior to addition of 1 μM ‘1’. Where indicated, the conditions of pathological replication were induced by treating cells with 2 mM HU and 300 nM UCN01 for 6 h or by a 18 hours treatment with 2 mM HU, in the presence or absence of ‘1’. Viability was evaluated by the LIVE/DEAD assay (Sigma-Aldrich) according to the manufacturer's instructions. Cell number was counted in randomly chosen fields and expressed as percent of dead cells (number of red nuclear stained cells divided by the total cell number) corrected for the cell loss observed in the population. For each time point, at least 200 cells were counted.

GM01604 cells [3] = experiment: Anaphase bridges after aphidicolin (MUS81 activity); assay type: cell-based, human; details: aphidicolin 24 h, increasing concentration of compound
Method: Forty eight hours after transfection the fibroblasts were lysed and analysed by WB with the indicated antibodies. b) Forty eight hours after transfection, GM01604 cells were exposed to […] aphidicolin (APH) for 24 h in the presence (grey bars) or absence (white bars) of increasing concentration of ‘1’ added in the last 3 h before aphidicolin treatment. Results are presented as mean±SEM from two independent replicates. c) The presence of anaphase bridges, as shown in the representative images, was scored in DAPI-stained cells. The white bars indicate 10 μm.

SMILES	Effect on the RAD52-dsDNA interaction (RAD52-dsDNA interaction)	Effect on the interaction between RAD52 and RPA proteins [1]	Binding to RAD52 by WaterLOGSY (RAD52)	Cell death after prolonged replication arrest (GM01604 cells [2]; BRCA2-depleted cells, HU 18 h)	Cell death (GM01604 cells [2]; BRCA2-depleted cells, after replication stress, 1 μM compound) [%]	Cell death after HU+UCN01 (GM01604 cells [2]; Ctrl siRNA cells, 1 μM compound)	Dead cells (GM01604 cells [2]; checkpoint-deficient, HU treated, 1 μM compound) [%]	Dead cells (GM01604 cells [2]; untreated, 1 μM compound)	Effect on MUS81 activity (anaphase bridges) (GM01604 cells [3])
O=C(O[C@@H]1Cc2c(O)cc(O)cc2O[C@@H]1c1cc(O)c(O)c(O)c1)c1cc(O)c(O)c(O)c1 [Compound 6, Epigallocatechin-3-monogallate]	able to displace dsDNA	no effect	positive WaterLOGSY peaks						
Oc1cc(O)c2c(c1)O[C@H](c1cc(O)c(O)c(O)c1)[C@H](O)C2 [Compound ‘1’, (−)-Epigallocatechin]				substantial increase in cell death	~80	potentiated the effect of the combined HU+UCN01 treatment	~60	approximately 40%	does not affect MUS81 activity
